According to ChEMBL document CHEMBL5729397, “Targeted drug rescue with novel compositions, combinations, and methods thereof” (2022):
pIC50: −log10 of the molar value.

Target: Cytochrome P450 2D6 (Homo sapiens, UniProt P10635)
Test: Inhibition of Dextromethorphan Metabolism: Dextromethorphan O-demethylase activity was determined in human liver microsomes. […] The incubation mixtures contained pooled human liver microsomes (final concentrations: 0.25 mg/ml), dextromethorphan, and a NADPH-generating system (1.3 mM NADP+, 3.3 mM glucose 6-phosphate, 3.3 mM MgCl2, and 0.4 U/ml glucose-6-phosphate dehydrogenase). […] All incubations were performed in triplicate, and mean values were used for analysis.

Sequence of Cytochrome P450 2D6 (P10635 whole entry): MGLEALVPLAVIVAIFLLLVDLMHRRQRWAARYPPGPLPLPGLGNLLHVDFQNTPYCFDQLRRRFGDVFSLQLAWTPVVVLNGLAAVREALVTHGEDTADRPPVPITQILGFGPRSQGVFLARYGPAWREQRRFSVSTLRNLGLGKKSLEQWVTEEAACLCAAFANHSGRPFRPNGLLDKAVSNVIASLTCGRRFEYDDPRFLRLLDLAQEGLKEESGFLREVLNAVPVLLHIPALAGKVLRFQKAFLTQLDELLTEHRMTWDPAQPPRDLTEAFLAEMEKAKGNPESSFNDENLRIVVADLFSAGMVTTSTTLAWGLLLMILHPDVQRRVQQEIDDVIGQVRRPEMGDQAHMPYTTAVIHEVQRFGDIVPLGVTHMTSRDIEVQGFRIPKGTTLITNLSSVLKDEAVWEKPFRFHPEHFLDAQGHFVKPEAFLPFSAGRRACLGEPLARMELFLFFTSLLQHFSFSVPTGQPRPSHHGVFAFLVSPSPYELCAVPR

SMILES: COc1ccc(CCc2ccccc2OCC(CN(C)C)OC(=O)CCC(=O)O)cc1 (stereo unspecified)
- pIC50: 5.92
